According to patent publication US20140135272A1, “NOVEL ZINC FINGER-LIKE PEPTIDE COMPOSITIONS AS POTENT AGENTS IN CANCER PREVENTION AND TREATMENT” (priority 2011, published 2014):
Positions count from the first letter of the chain named. “Also recorded” adds a separate entry of the source. Square brackets hold non-standard residues; d marks the D form. Ends that are not written are not given here. pS = N[C@@H](COP(=O)(O)O)C(=O)O

Assays:
Type in all cases: in vivo, nude mice
BCC cells [1] = test: Example 2: peptide pre-injection plus boost injection, BCC cell inoculation, tumor volumes; settings: peptide 2 mM, 100 μl i.v. per week for 3 weeks before BCC inoculation; boost per week for 3 weeks 2 months later; vs H2O control
Procedure: (§1) In the following examples, 8-week nude mice were used as host subjects to perform in vivo experiments. The nude mice were placed in room temperature and suitable humidity, and supplied with sterile water and standard food for 2 consecutive weeks before performing experiments. Then, the nude mice were injected with zinc finger-like peptide and tumor cells. The detailed processes for the experiments are described as follows.
(§2) First, manually synthesized zinc finger-like peptide (Genemed Synthesis Inc., San Antonio, Tex., USA) was resuspended in degassed purified water to obtain 1-5 mM of zinc finger-like peptide solution (100 μl). Herein, the solution for suspending the zinc finger-like peptide is not particularly limited. Preferably, the zinc finger-like peptide is resuspended in degassed purified water, in order to prevent the self-polymerization of the zinc finger-like peptide and loss its ability to inhibit tumor cell growth.
(§3) In the present experimental group, zinc finger-like peptide with sequence shown in SEQ ID NO: 1 was injected into nude mice.
Nude mice were injected with an intravenous injection of peptide (2 mM, 100 μl PBS) via tail veins per week for 3 consecutive weeks, followed by inoculating BCC cells (2 million cells/100 μl PBS) at both the right and left flanks. 2 months later, boost injection of peptide was carried out per week for 3 consecutive weeks. […]

[2] = tested on: basal cell carcinoma (BCC) cells; test: Example 1: peptide pre-injection, then basal cell carcinoma (BCC) cell inoculation, tumor volumes; settings: peptide 2 mM, 100 μl PBS i.v. tail vein per week for 3 weeks before BCC inoculation at both flanks; vs PBS control
Procedure: as §1, §2
Herein, zinc finger-like peptide with sequence shown in SEQ ID NO: 2 was injected into nude mice.
In particularly, nude mice were injected with an intravenous injection of peptide (2 mM, 100 μl phosphate-buffered saline or PBS) via tail veins per week for 3 consecutive weeks, followed by inoculating basal cell carcinoma (BCC) cells (2 million cells/100 μl PBS) at both the right and left flanks. […]

[3] = tested on: breast carcinoma MDA-MB-435s; test: Example 8: breast carcinoma MDA-MB-435s inoculated first, peptide treatment from the 70th day, tumor volumes; settings: peptide 2 mM, 100 μl per week for 4 weeks from the 70th day
Procedure: as §1, §2
In the present experimental group, zinc finger-like peptide with sequence shown in SEQ ID NO: 2 was injected subcutaneously into nude mice.
Nude mice received an injection of breast carcinoma MDA-MB-435s (2 million cells/100 μl PBS) […] at both the right and left flanks on the […] day, followed by injecting peptide (2 mM, 100 μl) per week for 4 consecutive weeks from the 70th day. The tumor volumes (mm^3) were observed daily during the whole experiment.
The process of the present control group was the same as that of the experimental group, except that the zinc finger-like peptide of the experimental group was substituted with PBS buffer (100 μl) in the present control group.

[4] = tested on: malignant melanoma B 16F10; test: Example 4: peptide variants pre-injected, then malignant melanoma B16F10 inoculation, tumor volumes and death; settings: peptide 2 mM, 100 μl i.v. per week for 2 weeks before B16F10 inoculation
Procedure: as §1, §2
Nude mice received an intravenous injection of peptide (2 mM, 100 μl) via tail veins per week for 2 consecutive weeks, followed by inoculating malignant melanoma B 16F10 (2 million cells/100 μl PBS) at both the right and left flanks. The tumor volumes (mm^3) were observed daily during the whole experiment.
as §3
In the present experimental group, zinc finger-like peptide with sequence shown in SEQ ID NO: 1, in which the fifth amino acid, serine was phosphorylated, and injected into nude mice.
In the present experimental group, zinc finger-like peptide with sequence shown in SEQ ID NO: 6 was injected into nude mice.
In the present experimental group, zinc finger-like peptide with sequence shown in SEQ ID NO: 6, in which the fourth amino acid serine was phosphorylated, and injected nude mice.
In the control group, H2O (100 μl) was injected into nude mice.

BCC cells [5] = test: Example 5: expression plasmid injection, then BCC cell inoculation, tumor volumes; settings: expression plasmid 100 μl via tail veins per week for 2 weeks before BCC inoculation; vs vector containing EGFP only
Procedure: as §1
The cDNA of zinc finger-like peptide was inserted into vector pCR3.1/CMV to form a zinc finger-like peptide expression plasmid, wherein the zinc finger-like peptide was connected to the c-terminal of EGFP.
In the present experimental group, the zinc finger-like peptide expression plasmid containing DNA sequence for expressing the zinc finger-like peptide (SEQ ID NO: 4) (100 μl) was injected into nude mice via tail veins per week for 2 consecutive weeks, to express zinc finger-like peptide. Then, BCC cells (2 million cells/100 μl medium) were inoculated into nude mice at both the right and left flanks. The tumor volumes (mm^3) were observed daily during the whole experiment.
The process of the present experimental group was the same as that of the experimental group 1, except that the DNA sequence shown in SEQ ID NO: 4 was substituted with DNA sequence shown in SEQ ID NO: 7. […]

Molecule: MSSRRSSGCKYCEQD [SEQ ID NO: 5, zinc finger-like peptide with serine mutation]
- tumor growth (tumor volumes) (BCC cells [1]): the therapeutic effect of the zinc finger-like peptide is decreased; also recorded: still has better treatment effect than H2O

Molecule: MSSRRSSSCKYCEQDFRAHTQKNAATPFLAN [SEQ ID NO: 2, zinc finger-like peptide, manually synthesized]
- tumor growth (tumor volumes) [2]: inhibited the growth of skin cancer cell on nude mice
- day from which tumor volumes were significantly increased ([3]; MDA-MB-435s inoculated first): 89 days
- maximum tumor volumes ([3]; observed on the 100th day): 1000 mm^3
- tumor volumes reduced to ([3]; on the 113th day, after the maximum): 50%
- tumor cell growth terminated compared to the control group ([3]; vs PBS control group): 75%

Molecule: RSSSCK [SEQ ID NO: 6, zinc finger-like peptide, called cysteine deletion]
- day on which the nude mice died [4]: 31 days

Molecule: SEQ ID NO: 1, in which the fifth amino acid, serine was phosphorylated: SEQ ID NO: 1 (RRSSSCK) with the fifth amino acid, serine, phosphorylated (RRSS[pS]CK)
- day on which the nude mice died [4]: 35 days

Molecule: SEQ ID NO: 6, in which the fourth amino acid serine was phosphorylated: SEQ ID NO: 6 (RSSSCK) with the fourth amino acid serine phosphorylated (RSS[pS]CK)
- day on which the nude mice died [4]: 35 days

B1: atgagcagca gaaggtcgtc ttcttgtaaa tattgtgaac aggacttccg agcacacaca cagaagaatg cggccacacc cttcctagcc aac (nucleic acid)
chain: ATGAGCAGCAGAAGGTCGTCTTCTTGTAAATATTGTGAACAGGACTTCCGAGCACACACACAGAAGAATGCGGCCACACCCTTCCTAGCCAAC
modifications: expressed or natural sequence
- tumor growth (tumor volumes) (BCC cells [5]): the growth of tumor cells can be inhibited and the volume thereof can be reduced

B2: atgagcagca gaaggtcgtc tggctgtaaa tattgtgaac aggacttccg agcacacaca cagaagaatg cggccacacc cttcctagcc aac (nucleic acid)
chain: B1 chain with T22G, C23G, T24C
modifications: chemistry not given here
- tumor growth (tumor volumes) (BCC cells [5]): can slightly inhibit the growth of the tumor cells
